The source made the active and inactive calls. No cut-off for these calls is given here.
How the values were obtained:
Mushroom tyrosinase [1] = target: T1, Mushroom tyrosinase (Agaricus bisporus, UniProt O42713+Q00024+C7FF04+C7FF05)
Description: Inhibition of mushroom tyrosinase monophenolase activity using L-tyrosine as substrate preincubated for 10 mins followed by substrate addition and measured after 20 mins by absorbance based assay

Mushroom tyrosinase [2] = target: T1, Mushroom tyrosinase; remark: listed apart in the source
Description: Inhibition of mushroom tyrosinase diphenolase activity using L-dopamine as substrate preincubated for 10 mins followed by substrate addition and measured after 20 mins by absorbance based assay

Danio rerio [3] = species on record: Danio rerio; assay: Anti-pigmentation activity in wildtype AB zebrafish assessed as melanin looseness in head at 5 uM incubated for 45 hrs by anatomical microscopic analysis; assay type: functional, organism-based
[4] = Toxicity in wildtype AB zebrafish assessed as effect on growth at 10 to 50 microM incubated for 45 hrs by anatomic microscopic analysis; parameters: species or system Danio rerio; details: in vivo, dose 10-50 µM
Danio rerio [5] = species on record: Danio rerio; assay: Anti-pigmentation activity in wildtype AB zebrafish assessed as melanin reduction in head at 5 uM incubated for 45 hrs by anatomical microscopic analysis; assay type: functional, organism-based
[6] = zebrafish, in vivo, 45 h
Description: Toxicity in wildtype AB zebrafish assessed as minimum toxic concentration measured after 45 hrs

Danio rerio [7] = species on record: Danio rerio; assay: Anti-pigmentation activity in wildtype AB zebrafish assessed as depigmentation at 5 uM incubated for 45 hrs by anatomical microscopic analysis; assay type: functional
[8] = Toxicity in wildtype AB zebrafish assessed as effect on growth at 1 to 5 microM incubated for 45 hrs by anatomic microscopic analysis; parameters: species or system Danio rerio; details: in vivo, dose 1-5 µM
[9] = Toxicity in wildtype AB zebrafish assessed as effect on phenotype at 1 to 5 microM incubated for 45 hrs by anatomic microscopic analysis; parameters: species or system Danio rerio; details: in vivo, dose 1-5 µM
[10] = Toxicity in wildtype AB zebrafish assessed as effect on phenotype at 10 to 50 microM incubated for 45 hrs by anatomic microscopic analysis; parameters: species or system Danio rerio; details: in vivo, dose 10-50 µM
[11] = Metabolic stability in human liver microsomes assessed as hepatic extraction ratio at 1.5 uM preincubated for 5 mins followed by NADPH addition and measured after 10 mins by LC/MS analysis; assay type: ADME, Microsome; details: time 15 min, read-out: ERH
[12] = Metabolic stability in human plasma assessed as half-life at 100 uM incubated for 120 mins by LC/MS analysis; assay type: ADME, cell-free
[13] = Metabolic stability in human liver microsomes assessed as intrinsic clearance at 1.5 uM preincubated for 5 mins followed by NADPH addition and measured after 10 mins by LC/MS analysis; assay type: ADME, Microsome; details: time 15 min, read-out: CLH
[14] = Metabolic stability in human liver microsomes assessed as half-life at 1.5 uM preincubated for 5 mins followed by NADPH addition and measured after 10 mins by LC/MS analysis; assay type: ADME, Microsome; details: time 15 min
[15] = Metabolic stability in human plasma assessed as compound remaining at 100 uM incubated for 120 mins by LC/MS analysis; assay type: ADME, cell-free; details: read-out: Stability
[16] = Metabolic stability in human liver microsomes assessed as compound remaining at 1.5 uM incubated for 45 mins by LC/MS analysis; assay type: ADME, Microsome; details: read-out: Stability
Tyrosinase = target: T2, Tyrosinase (Homo sapiens, UniProt P14679); assay: Binding affinity to tyrosinase (unknown origin) assessed as dissociation constant by SPR analysis
T2 sequence (P14679 whole entry): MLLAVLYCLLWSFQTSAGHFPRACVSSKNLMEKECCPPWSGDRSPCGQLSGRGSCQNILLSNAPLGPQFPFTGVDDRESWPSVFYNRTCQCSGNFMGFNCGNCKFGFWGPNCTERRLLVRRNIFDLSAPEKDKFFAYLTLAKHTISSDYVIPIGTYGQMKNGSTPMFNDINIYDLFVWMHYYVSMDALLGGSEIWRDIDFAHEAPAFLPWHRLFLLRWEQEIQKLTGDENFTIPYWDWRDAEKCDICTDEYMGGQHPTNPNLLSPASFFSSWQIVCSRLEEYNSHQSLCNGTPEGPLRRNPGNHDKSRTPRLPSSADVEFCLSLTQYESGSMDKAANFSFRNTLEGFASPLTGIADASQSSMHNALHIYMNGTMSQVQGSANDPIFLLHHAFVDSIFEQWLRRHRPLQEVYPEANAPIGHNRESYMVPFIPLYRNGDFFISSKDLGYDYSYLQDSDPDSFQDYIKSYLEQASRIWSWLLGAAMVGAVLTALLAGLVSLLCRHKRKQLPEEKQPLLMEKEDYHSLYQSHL

Row | Compound | IC50 (Mushroom tyrosinase [1]) [µM] | IC50 (Mushroom tyrosinase [2]) [µM] | further results
1 | Cc1ccc(C)c(NC(=O)CC(=O)N2CCCN(C/C=C/c3ccccc3)CC2)c1 | 744.95 | > 800 | 
2 | Cc1ccc(/C=C/CN2CCN(C(=O)CCC(=O)Nc3cccc(O)c3)CC2)cc1 | 217.17 | > 800 | 
3 | Cc1ccc(F)cc1NC(=O)CCN1CCCN(C/C=C/c2ccccc2)CC1 | 639.85 | > 800 | 
4 | Cc1ccc(NC(=O)CN2CCCN(C/C=C/c3ccccc3)CC2)c(C)c1 | > 800 | > 800 | 
5 | Cc1ccc(C)c(NC(=O)CCC(=O)N2CCCN(C/C=C/c3ccccc3)CC2)c1 | 393.05 | > 800 | 
6 | Cc1ccc(/C=C/CN2CCN(C(=O)CCC(=O)Nc3ccccc3C)CC2)cc1 | 173 | 204.3 | 
7 | Cc1ccc(NC(=O)CC(=O)N2CCCN(C/C=C/c3ccccc3)CC2)c(C)c1 | 732.35 | > 800 | 
8 | Cc1ccc(/C=C/CN2CCN(C(=O)CCC(=O)Nc3ccccc3O)CC2)cc1 | 11.49 | 31.01 | hepatic extraction ratio at 10 min, 1.5 µM [11]: 0.759; half-life at 100 µM [12]: > 120 min; CLint scaled at 1.5 µM [13]: 65.2 mL/min/kg; half-life at 1.5 µM [14]: 24.6 min; remaining at 2 h, 100 µM [15]: 94.6%; MTC [6]: 5 µM; remaining at 0.75 h, 1.5 µM [16]: 28.1%; Kd (Tyrosinase): 198 µM
9 | Cc1ccc(C)c(NC(=O)CN2CCCN(C/C=C/c3ccccc3)CC2)c1 | > 800 | > 800 | 
10 | Cc1ccc(NC(=O)CCN2CCCN(C/C=C/c3ccccc3)CC2)cc1 | 338.4 | 536.05 | 
11 | Cc1ccc(/C=C/CN2CCN(C(=O)CCCC(=O)Nc3ccccn3)CC2)cc1 | 192.93 | 329.55 | 
12 | Cc1ccc(/C=C/CN2CCN(C(=O)CCC(=O)Nc3ccc(O)cc3)CC2)cc1 | 40.34 | 131.77 | 
13 | Cc1ccc(NC(=O)CCC(=O)Nc2cnn(C/C=C/c3ccccc3)c2)c(C)c1 | > 800 | > 800 | 
14 | Cc1cc(Cl)ccc1NC(=O)CN1CCCN(C/C=C/c2ccccc2)CC1 | > 800 | > 800 | 
15 | Cc1ccc(NC(=O)CCC(=O)N2CCCN(C/C=C/c3ccccc3)CC2)c(C)c1 | 681.3 | > 800 | 
16 | Cc1ccccc1NC(=O)CN1CCCN(C/C=C/c2ccccc2)CC1 | > 800 | > 800 | 

The next lines start with results.

Row | IC50 (Mushroom tyrosinase [1]) [µM] | IC50 (Mushroom tyrosinase [2]) [µM] | Compound | further results
17 | 88.01 | 244.6 | Cc1cccc(C)c1NC(=O)CN1CCN(C/C=C/c2ccccc2)CC1 | 
18 | 652.9 | > 800 | Cc1ccc(NC(=O)CCCN2CCN(C/C=C/c3ccccc3)CC2)c(C)c1 | Activity (Danio rerio [3]): Active; Activity [4]: Toxic; Activity (Danio rerio [5]): Active; MTC [6]: 50 µM; Activity (Danio rerio [7]): 9.98%; Activity [8]: Non-Toxic; Activity [9]: Non-Toxic; Activity [10]: Toxic
19 | 255.4 | 465.1 | Cc1ccc(NC(=O)CCN2CCCN(C/C=C/c3ccccc3)CC2)c(C)c1 | 
20 | 234.2 | 555.4 | Cc1ccc(C)c(NC(=O)CCN2CCCN(C/C=C/c3ccccc3)CC2)c1 | 
21 | 248.7 | > 800 | Cc1cccc(C)c1NC(=O)CCCN1CCCN(C/C=C/c2ccccc2)CC1 | 
22 | > 800 | > 800 | Cc1ccc(NC(=O)CCN2CCCN(C/C=C/c3ccccc3)CC2)cc1C | 
23 | 465.1 | > 800 | Cc1cc(C)c(NC(=O)CCN2CCCN(C/C=C/c3ccccc3)CC2)c(C)c1 | 
